≈ marks a conversion by molar mass, not a printed value.
Tests used:
Escherichia coli [1] = type: functional, MTCC 443
Pseudomonas aeruginosa [2] = assay: Antibacterial activity against Pseudomonas aeruginosa MTCC 424 after 16 to 18 hr by serial dilution method; type: functional
Escherichia coli [3] = assay: Bactericidal against Escherichia coli MTCC 443 after 3 days; type: functional; settings: MTCC 443, 72 h
Pseudomonas aeruginosa [4] = type: functional, MTCC 424
Staphylococcus aureus [5] = assay: Bactericidal activity against Staphylococcus aureus MTCC 096 after 3 days; type: functional; settings: MTCC 096, 72 h
Aspergillus flavus [6] = assay: Antifungal activity against Aspergillus flavus MTCC 277 after 28 to 30 hr by serial dilution method; type: functional
Aspergillus fumigatus [7] = assay: Antifungal activity against Aspergillus fumigatus MTCC 343 at […] to […] ug/ml after 28 to 30 hr by cup-plate method; type: functional
Staphylococcus aureus [8] = assay: Antibacterial activity against Staphylococcus aureus MTCC 096 after 16 to 18 hr by serial dilution method; type: functional
Aspergillus niger [9] = assay: Antifungal activity against Aspergillus niger MTCC 282 at […] to […] ug/ml after 28 to 30 hr by cup-plate method; type: functional
Klebsiella pneumoniae [10] = assay: Antibacterial activity against Klebsiella pneumoniae MTCC 432 after 16 to 18 hr by serial dilution method; type: functional
Escherichia coli [11] = assay: Antibacterial activity against Escherichia coli MTCC 443 after 16 to 18 hr by serial dilution method; type: functional
Bacillus subtilis [12] = type: functional, MTCC 441
Aspergillus flavus [13] = assay: Antifungal activity against Aspergillus flavus MTCC 277 at […] to […] ug/ml after 28 to 30 hr by cup-plate method; type: functional
[14] = test system: Staphylococcus epidermidis; type: functional, MTCC 435
Salmonella typhi [15] = assay: Antibacterial activity against Salmonella enterica subsp. enterica serovar Typhi MTCC 733 after 16 to 18 hr by serial dilution method; type: functional
Salmonella typhi [16] = assay: Antibacterial activity against Salmonella enterica subsp. enterica serovar Typhi MTCC 733 at […] to […] ug/ml after 16 to 18 hr by cup-plate method; type: functional
Bacillus subtilis [17] = assay: Antibacterial activity against Bacillus subtilis MTCC 441 after 16 to 18 hr by serial dilution method; type: functional
Staphylococcus aureus [18] = type: functional, MTCC 096
Aspergillus niger [19] = assay: Fungicidal activity against Aspergillus niger MTCC 282 after 3 days; type: functional; settings: MTCC 282, 72 h
Candida albicans [20] = assay: Fungicidal activity against Candida albicans MTCC 227 after 3 days; type: functional; settings: MTCC 227, 72 h
Klebsiella pneumoniae [21] = type: functional, MTCC 432
Candida albicans [22] = assay: Antifungal activity against Candida albicans MTCC 227 after 28 to 30 hr by serial dilution method; type: functional
[23] = test system: Staphylococcus epidermidis; assay: Antibacterial activity against Staphylococcus epidermidis MTCC 435 after 16 to 18 hr by serial dilution method; type: functional
Aspergillus fumigatus [24] = assay: Antifungal activity against Aspergillus fumigatus MTCC 343 after 28 to 30 hr by serial dilution method; type: functional
Candida albicans [25] = type: functional, MTCC 227
Klebsiella pneumoniae [26] = assay: Bactericidal activity against Klebsiella pneumoniae MTCC 432 after 3 days; type: functional; settings: MTCC 432, 72 h
Aspergillus niger [27] = assay: Antifungal activity against Aspergillus niger MTCC 282 after 28 to 30 hr by serial dilution method; type: functional

| SMILES | inhibition zone (IZ) (Escherichia coli [1]) [mm] | MIC (Pseudomonas aeruginosa [2]) [µg/mL] | MBC (Escherichia coli [3]) [µg/mL] | inhibition zone (IZ) (Pseudomonas aeruginosa [4]) [mm] | MBC (Staphylococcus aureus [5]) [µg/mL] | MIC (Aspergillus flavus [6]) [µg/mL] | inhibition zone (IZ) (Aspergillus fumigatus [7]) [mm] | MIC (Staphylococcus aureus [8]) [µg/mL] | inhibition zone (IZ) (Aspergillus niger [9]) [mm] | MIC (Klebsiella pneumoniae [10]) [µg/mL] | MIC (Escherichia coli [11]) [µg/mL] | inhibition zone (IZ) (Bacillus subtilis [12]) [mm] | inhibition zone (IZ) (Aspergillus flavus [13]) [mm] | inhibition zone (IZ) [14] [mm] | MIC (Salmonella typhi [15]) [µg/mL] | inhibition zone (IZ) (Salmonella typhi [16]) [mm] | MIC (Bacillus subtilis [17]) [µg/mL] | inhibition zone (IZ) (Staphylococcus aureus [18]) [mm] | MFC (Aspergillus niger [19]) [µg/mL] | MFC (Candida albicans [20]) [µg/mL] | also measured |
| --- | --- | --- | --- | --- | --- | --- | --- | --- | --- | --- | --- | --- | --- | --- | --- | --- | --- | --- | --- | --- | --- |
| COc1cc(-c2nnc(COc3cc(=O)oc4ccccc34)[nH]2)cc(OC)c1OC | 12 | 25 (≈ 61.1 µM) | 25 (≈ 61.1 µM) | <10 | 25 (≈ 61.1 µM) | 25 (≈ 61.1 µM) | 11 | 6.25 (≈ 15.3 µM) | 14 | 12.5 (≈ 30.5 µM) | 12.5 (≈ 30.5 µM) | 14 | <10 | 12 | 6.25 (≈ 15.3 µM) | 14 | 6.25 (≈ 15.3 µM) | 14 | 25 (≈ 61.1 µM) | 25 (≈ 61.1 µM) | inhibition zone (IZ) (Klebsiella pneumoniae [21]): 11 mm; MIC (Candida albicans [22]): 12.5 µg/mL (≈ 30.5 µM); MIC [23]: 12.5 µg/mL (≈ 30.5 µM); MIC (Aspergillus fumigatus [24]): 25 µg/mL (≈ 61.1 µM); inhibition zone (IZ) (Candida albicans [25]): 12 mm; MBC (Klebsiella pneumoniae [26]): 25 µg/mL (≈ 61.1 µM); MIC (Aspergillus niger [27]): 6.25 µg/mL (≈ 15.3 µM) |
| COc1cc(-c2nnc(COc3cc(=O)oc4ccccc34)[nH]2)ccc1O | 13 | 25 (≈ 68.4 µM) | 12.5 (≈ 34.2 µM) | <10 | 12.5 (≈ 34.2 µM) | 25 (≈ 68.4 µM) | 13 | 6.25 (≈ 17.1 µM) | 12 | 6.25 (≈ 17.1 µM) | 6.25 (≈ 17.1 µM) | 11 | <10 | <10 | 6.25 (≈ 17.1 µM) | 14 | 12.5 (≈ 34.2 µM) | 15 | 12.5 (≈ 34.2 µM) | 12.5 (≈ 34.2 µM) | inhibition zone (IZ) (Klebsiella pneumoniae [21]): 15 mm; MIC (Candida albicans [22]): 6.25 µg/mL (≈ 17.1 µM); MIC [23]: 50 µg/mL (≈ 137 µM); MIC (Aspergillus fumigatus [24]): 12.5 µg/mL (≈ 34.2 µM); inhibition zone (IZ) (Candida albicans [25]): 14 mm; MBC (Klebsiella pneumoniae [26]): 12.5 µg/mL (≈ 34.2 µM); MIC (Aspergillus niger [27]): 12.5 µg/mL (≈ 34.2 µM) |
| O=c1cc(OCc2nnc(-c3ccco3)[nH]2)c2ccccc2o1 | 15 | 12.5 (≈ 40.4 µM) | 12.5 (≈ 40.4 µM) | 11 | 12.5 (≈ 40.4 µM) | 12.5 (≈ 40.4 µM) | <10 | 6.25 (≈ 20.2 µM) | 14 | 6.25 (≈ 20.2 µM) | 6.25 (≈ 20.2 µM) | <10 | 12 | <10 | 25 (≈ 80.8 µM) | <10 | 50 (≈ 162 µM) | 15 | 12.5 (≈ 40.4 µM) | 25 (≈ 80.8 µM) | inhibition zone (IZ) (Klebsiella pneumoniae [21]): 14 mm; MIC (Candida albicans [22]): 6.25 µg/mL (≈ 20.2 µM); MIC [23]: 25 µg/mL (≈ 80.8 µM); MIC (Aspergillus fumigatus [24]): 25 µg/mL (≈ 80.8 µM); inhibition zone (IZ) (Candida albicans [25]): 13 mm; MBC (Klebsiella pneumoniae [26]): 25 µg/mL (≈ 80.8 µM); MIC (Aspergillus niger [27]): 6.25 µg/mL (≈ 20.2 µM) |

From ChEMBL document CHEMBL3045586, “Synthesis and antimicrobial activity of some new 4-triazolylmethoxy-2H-chromen-2-one derivatives” (2012)
